From ChEMBL document CHEMBL1201862, “PubChem BioAssay data set” (2004) come the findings set out here.

Assay [1] has as its target T1, Histone-lysine N-methyltransferase NSD2 (Homo sapiens, UniProt O96028).
T1 sequence (O96028 whole entry): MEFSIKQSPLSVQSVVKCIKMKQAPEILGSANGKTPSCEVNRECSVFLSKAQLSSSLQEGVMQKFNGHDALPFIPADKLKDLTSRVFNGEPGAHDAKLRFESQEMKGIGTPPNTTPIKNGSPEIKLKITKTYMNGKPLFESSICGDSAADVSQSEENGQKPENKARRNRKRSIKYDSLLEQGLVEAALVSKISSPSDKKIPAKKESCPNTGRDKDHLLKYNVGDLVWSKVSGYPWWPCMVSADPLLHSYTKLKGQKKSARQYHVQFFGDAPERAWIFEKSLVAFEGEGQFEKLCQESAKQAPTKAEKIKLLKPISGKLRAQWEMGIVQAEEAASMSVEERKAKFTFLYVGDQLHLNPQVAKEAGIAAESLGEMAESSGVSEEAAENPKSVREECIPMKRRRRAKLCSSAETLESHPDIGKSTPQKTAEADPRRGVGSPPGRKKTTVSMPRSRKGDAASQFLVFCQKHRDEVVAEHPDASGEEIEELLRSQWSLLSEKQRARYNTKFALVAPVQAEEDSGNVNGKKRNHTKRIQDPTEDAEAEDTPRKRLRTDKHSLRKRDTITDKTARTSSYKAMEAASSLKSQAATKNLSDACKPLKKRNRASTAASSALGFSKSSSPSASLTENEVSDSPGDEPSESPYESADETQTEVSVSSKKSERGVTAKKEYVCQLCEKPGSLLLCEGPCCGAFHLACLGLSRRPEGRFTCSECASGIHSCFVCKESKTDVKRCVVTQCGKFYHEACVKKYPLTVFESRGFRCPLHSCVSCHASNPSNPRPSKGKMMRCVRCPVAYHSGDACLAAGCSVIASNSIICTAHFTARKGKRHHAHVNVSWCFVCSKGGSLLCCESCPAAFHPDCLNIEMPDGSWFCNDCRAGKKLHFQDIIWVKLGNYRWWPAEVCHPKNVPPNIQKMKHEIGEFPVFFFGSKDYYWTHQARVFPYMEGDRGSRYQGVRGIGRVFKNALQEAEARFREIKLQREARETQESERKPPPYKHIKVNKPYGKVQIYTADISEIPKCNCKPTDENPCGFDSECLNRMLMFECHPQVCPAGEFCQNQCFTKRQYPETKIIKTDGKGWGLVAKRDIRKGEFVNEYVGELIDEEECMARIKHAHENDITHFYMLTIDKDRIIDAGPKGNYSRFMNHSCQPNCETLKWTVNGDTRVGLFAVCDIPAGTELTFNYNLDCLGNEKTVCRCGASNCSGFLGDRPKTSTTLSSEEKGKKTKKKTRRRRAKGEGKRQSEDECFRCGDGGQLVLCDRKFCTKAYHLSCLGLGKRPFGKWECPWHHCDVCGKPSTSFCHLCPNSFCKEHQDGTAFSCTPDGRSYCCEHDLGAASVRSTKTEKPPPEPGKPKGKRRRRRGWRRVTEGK
The assay is classed as biochemical.

Assay [2] concerns the target T2, Protein RecA (Mycobacterium tuberculosis, UniProt P9WHJ3).
T2 sequence (P9WHJ3 whole entry): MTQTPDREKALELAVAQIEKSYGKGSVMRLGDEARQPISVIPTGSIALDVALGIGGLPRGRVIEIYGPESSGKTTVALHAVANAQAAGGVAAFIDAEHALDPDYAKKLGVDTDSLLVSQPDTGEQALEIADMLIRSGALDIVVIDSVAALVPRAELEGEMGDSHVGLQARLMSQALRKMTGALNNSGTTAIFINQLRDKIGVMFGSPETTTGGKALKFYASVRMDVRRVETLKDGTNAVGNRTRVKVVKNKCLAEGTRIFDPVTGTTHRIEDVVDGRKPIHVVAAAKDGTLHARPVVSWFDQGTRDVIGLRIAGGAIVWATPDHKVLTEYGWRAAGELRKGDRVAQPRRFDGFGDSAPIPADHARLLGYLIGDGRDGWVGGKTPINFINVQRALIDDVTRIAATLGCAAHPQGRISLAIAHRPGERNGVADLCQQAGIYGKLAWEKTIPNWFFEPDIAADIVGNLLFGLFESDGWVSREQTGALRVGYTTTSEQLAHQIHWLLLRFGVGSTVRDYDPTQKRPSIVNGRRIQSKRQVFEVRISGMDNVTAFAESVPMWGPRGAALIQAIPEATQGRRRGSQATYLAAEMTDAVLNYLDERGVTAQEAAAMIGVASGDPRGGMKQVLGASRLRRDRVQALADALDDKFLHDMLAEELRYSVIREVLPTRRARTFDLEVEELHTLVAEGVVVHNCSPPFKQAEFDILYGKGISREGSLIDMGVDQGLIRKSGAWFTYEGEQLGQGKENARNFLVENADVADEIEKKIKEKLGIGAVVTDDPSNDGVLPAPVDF
Briefly: Fluorescence Cell-Free Homogeneous Dose Retest to Identify Inhibitors of RecA-Intein Splicing Activity. [Related pubchem assays (depositor defined):AID2097, AID2223, AID489010, AID492950]. The assay is classed as functional.

Active and inactive are the calls of the source.

In general, AC50 refers to the midpoint of the concentration-response curve, whichever way the signal moves. As for `O=C(CCN1C(=O)/C(=C\c2ccco2)SC1=S)Nc1ccc(C(=O)O)c(O)c1`, in assay [1], the concentration at half-maximal activity (AC50) is 13800 nM (active).
Same read-out and setting: under `O=C1C=C(c2c(O)ccc3ccccc23)c2ccccc2C1=O` stands 1700 nM (active).
As a reminder, the EC50 is the concentration that produces a half-maximal response. Turning to `Cc1nc2c(=O)n(C)c(=O)nc-2n(C)n1`, in assay [2], the EC50 was 20.9 nM (active).
With `Oc1nc(Nc2ccccc2Cl)cc2ccccc12`, the EC50 in assay [2] is 1990 nM (active).
